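The concentration for 50% growth inhibition is given as GI50. Definition used: TGI = concentration required for complete inhibition of growth.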
Tests used:
Assay in all cases: NCI tumour cell line growth inhibition, 384-well format
[1] = tested on: OVCAR-3 ovarian
[2] = tested on: OVCAR-5 ovarian
[3] = tested on: MCF7 breast
[4] = tested on: NCI-H226 lung
[5] = tested on: NCI-H322M lung
[6] = tested on: EKVX NSCLC
[7] = tested on: SF-295 CNS
[8] = tested on: UO-31 renal
[9] = tested on: UACC-62 melanoma
[10] = tested on: LOX IMVI melanoma
[11] = tested on: A549 NSCLC
[12] = tested on: NCI-H522 lung
[13] = tested on: KM12 colon
[14] = tested on: MDA-MB-468 breast
[15] = tested on: M14 melanoma
[16] = tested on: NCI-H23 lung
[17] = tested on: HOP-62 NSCLC
[18] = tested on: RPMI-8226 leukemia
[19] = tested on: CCRF-CEM leukemia
[20] = tested on: A498 renal
[21] = tested on: RXF 393 renal
[22] = tested on: HS 578T breast
[23] = tested on: CAKI-1 renal
[24] = tested on: BT-549 breast

Which results are given for `CC(C)n1cc(-c2ccc3c(c2)N(C)CC3)c2c(NS(=O)(=O)c3ccn(C)n3)ccnc21`?
TGI [1]: > 87.6 µM; GI50 [2]: > 100 µM; TGI [2]: > 100 µM; GI50 [3]: 56.3 µM; TGI [3]: > 100 µM; GI50 [4]: > 96.1 µM; TGI [4]: > 100 µM; GI50 [5]: > 100 µM; TGI [5]: > 100 µM; GI50 [6]: 75.6 µM; TGI [6]: > 100 µM; GI50 [7]: 37 µM; TGI [7]: > 91.2 µM; GI50 [8]: 78.6 µM; TGI [8]: > 100 µM; GI50 [9]: 63.4 µM; TGI [9]: > 100 µM; GI50 [10]: 65.8 µM; TGI [10]: > 100 µM; GI50 [11]: 47.1 µM; TGI [11]: > 100 µM; GI50 [12]: > 80.4 µM; TGI [12]: > 100 µM; GI50 [13]: 78 µM; TGI [13]: > 100 µM; GI50 [14]: 56.8 µM; TGI [14]: > 100 µM; GI50 [15]: > 100 µM; TGI [15]: > 100 µM; GI50 [16]: > 70 µM; TGI [16]: > 100 µM; GI50 [17]: > 78.1 µM; TGI [17]: > 100 µM; GI50 [18]: 21.8 µM; TGI [18]: 52.9 µM; GI50 [19]: 45.3 µM; TGI [19]: > 100 µM; GI50 [20]: 85.7 µM; TGI [20]: > 100 µM; GI50 [21]: 51.2 µM; TGI [21]: > 100 µM; GI50 [22]: 69.3 µM; TGI [22]: > 100 µM; GI50 [23]: > 100 µM; TGI [23]: > 100 µM; GI50 [24]: > 100 µM; TGI [24]: > 100 µM

Source: PubChem BioAssay (NCI)
